Laboratory results taken from US20250042922A1, “KRAS MODULATING COMPOUNDS” (priority 2023, published 2025).

Experiments:
[1] = test system: cellular pERK in Kuramochi (WT KRAS) cells; assay: Cell based pERK assay, Kuramochi; details: Kuramochi (WT KRAS), 2 hours incubation, HTRF phospho-ERK1/2; read-out: Kuramochi pERK EC50
Description: (§1) Compounds were tested in a 384-well assay format for their ability to inhibit cellular pERK in Kuramochi (WT KRAS), MIA-PaCa-2 (KRAS-G12C), ASPC-1 (KRAS G12D), and NCI-H441 (KRAS-G12V) cell-lines. Compounds were serially diluted (1:3) in DMSO. On day −1, 80 μL of cells were plated per well in the 384 well tissue-culture plates (Greiner: Cat #781080) to seed 5000 cells per wells of AsPC-1 or 7500 cells of MIA-PaCa-2, NCI-H441, and Kuramochi cell lines in RPMI (Corning: Cat #10-040-CM) with 10% fetal bovine serum (FBS) (HyClone: Cat #SH30071-03) and 1× penicillin-streptomycin-glutamate (PSG) (Corning: Cat #30-009-CI) for […] and Kuramochi cell lines and DMEM (Corning: Cat #15-018-CM) with 10% FBS and 1×PSG for MIA-PaCa-2 cell line. The plates were then incubated overnight at 37° C. and 5% CO2. On day 0, 400 nL of compound/well was added into the cell plates and mixed 5 times by pipetting using a Beckmann Biomek FX. The cell plates were then incubated for 2 hours at 37° C. and 5% CO2. HTRF Advanced Phospho-ERK1/2 (THR202/TYR204) Detection Kits (PerkinElmer: Cat #64AERPEG) were used to prepare the lysis and detection solution according to manufacturer protocol. Following the 2 hour incubation, 70 μL of medium was aspirated from the plates and 10 uL of lysis and detection solution was added to the plates using a Biotek EL406 washer and dispenser. Plates were sealed and stored overnight at room temperature. HTRF ratio (665 nm/615 nm) was read by Envision multimode reader (PerkinElmer) the next day. The TR-FRET ratios were normalized to a positive (saturating concentration of known inhibitor) and negative (DMSO) control and plotted against the log of compound concentration.

[2] = test system: cellular pERK in MIA-PaCa-2 (KRAS-G12C) cells; assay: Cell based pERK assay, MIA-PaCa-2; details: Homo sapiens; MIA-PaCa-2 (KRAS-G12C), 2 hours incubation, HTRF phospho-ERK1/2; read-out: MIAPaCa2 pERK EC50
Description: as §1

[3] = test system: cellular pERK in NCI-H441 (KRAS-G12V) cells; assay: Cell based pERK assay, NCI-H441; details: Homo sapiens; NCI-H441 (KRAS-G12V), 2 hours incubation, HTRF phospho-ERK1/2; read-out: H441 PERK EC50
Description: as §1

[4] = test system: cellular pERK in ASPC-1 (KRAS G12D) cells; assay: Cell based pERK assay, ASPC-1; details: Homo sapiens, ASPC1; ASPC-1 (KRAS G12D), 2 hours incubation, HTRF phospho-ERK1/2; read-out: AsPC1 pERK EC50
Description: as §1

CCc1c(F)ccc2cc(O)cc(-c3nc4c5c(nc(OC[C@@]67CCCN6C[C@H](F)C7)nc5c3F)N3C[C@@]5(F)CC[C@H](N5)[C@H]3CC4)c12 [Example 2-1, 4-((5aR,6S,9S)-1,9-difluoro-12-(((2R,7aS)-2-fluorotetrahydro-1H-pyrrolizin-7a(5H)-yl)methoxy)-4,5,5a,6,7,8,9,10-octahydro-3,10a,11,13,14-pentaaza-6,9-methanonaphtho[1,8-ab]heptalen-2-yl)-5-ethyl-6-fluoronaphthalen-2-ol]
EC50 [1]: 1.41 nM
EC50 [2]: 3.01 nM
EC50 [3]: 4.44 nM
EC50 [4]: 55.5 nM

C#Cc1c(F)ccc2cc(O)cc(-c3nc4c5c(nc(OC[C@@]67CCCN6C[C@H](F)C7)nc5c3F)N3C[C@@]5(F)CC[C@](F)(N5)[C@H]3CC4)c12 [Example 3-1, 5-ethynyl-6-fluoro-4-((5aR,6R,9S)-1,6,9-trifluoro-12-(((2R,7aS)-2-fluorotetrahydro-1H-pyrrolizin-7a(5H)-yl)methoxy)-4,5,5a,6,7,8,9,10-octahydro-3,10a,11,13,14-pentaaza-6,9-methanonaphtho[1,8-ab]heptalen-2-yl)naphthalen-2-ol]
EC50 [1]: 1.13 nM
EC50 [2]: 0.89 nM
EC50 [3]: 1.25 nM
EC50 [4]: 3.27 nM

C#Cc1c(F)ccc2cc(O)cc(-c3nc4c5c(nc(OC[C@@]67CCCN6C[C@H](F)C7)nc5c3F)N3C[C@@]5(F)CC[C@](F)(N5)[C@H]3CCC4)c12 [Example 4-1, 5-ethynyl-6-fluoro-4-((6aR,7R,10S)-1,7,10-trifluoro-13-(((2R,7aS)-2-fluorotetrahydro-1H-pyrrolizin-7a(5H)-yl)methoxy)-5,6,6a,7,8,9,10,11-octahydro-4H-3,11a,12,14,15-pentaaza-7,10-methanocyclohepta[4,5]cycloocta[1,2,3-de]naphthalen-2-yl)naphthalen-2-ol]
EC50 [1]: 1.4 nM
EC50 [2]: 0.49 nM
EC50 [3]: 0.17 nM
EC50 [4]: 1.34 nM

C#Cc1c(F)ccc2cc(N)cc(-c3nc4c5c(nc(OCC67CCCN6CCC7)nc5c3F)N3C[C@@]5(F)CC[C@](F)(N5)[C@H]3CCC4)c12 [Example 4-6, 5-ethynyl-6-fluoro-4-((6aR,7R,10S)-1,7,10-trifluoro-13-((tetrahydro-1H-pyrrolizin-7a(5H)-yl)methoxy)-5,6,6a,7,8,9,10,11-octahydro-4H-3,11a,12,14,15-pentaaza-7,10-methanocyclohepta[4,5]cycloocta[1,2,3-de]naphthalen-2-yl)naphthalen-2-amine]
EC50 [1]: 1.98 nM
EC50 [2]: 1.35 nM
EC50 [3]: 6.45 nM
EC50 [4]: 30.9 nM

C#Cc1c(F)ccc2cc(O)cc(-c3nc4c5c(nc(OCC67CCCN6CCC7)nc5c3F)N3C[C@@]5(F)CC[C@](F)(N5)[C@@H]3[C@@H](C)C4)c12 [Example 4-10, 5-ethynyl-6-fluoro-4-((5S,5aS,6R,9S)-1,6,9-trifluoro-5-methyl-12-((tetrahydro-1H-pyrrolizin-7a(5H)-yl)methoxy)-4,5,5a,6,7,8,9,10-octahydro-3,10a,11,13,14-pentaaza-6,9-methanonaphtho[1,8-ab]heptalen-2-yl)naphthalen-2-ol]
EC50 [1]: 11.6 nM
EC50 [2]: 0.243 nM
EC50 [3]: 3.2 nM
EC50 [4]: 5.93 nM

C#Cc1c(F)ccc2cc(O)cc(-c3nc4c5c(nc(OC[C@@]67CCCN6C[C@H](F)C7)nc5c3F)N3C[C@@]5(F)CC[C@H](N5)[C@H]3C=C4C)c12 [Example 4-15, 4-((5aR,6S,9S)-1,9-difluoro-12-(((2R,7aS)-2-fluorotetrahydro-1H-pyrrolizin-7a(5H)-yl)methoxy)-4-methyl-5a,6,7,8,9,10-hexahydro-3,10a,11,13,14-pentaaza-6,9-methanonaphtho[1,8-ab]heptalen-2-yl)-5-ethynyl-6-fluoronaphthalen-2-ol]
EC50 [1]: 4.42 nM
EC50 [2]: 4.05 nM
EC50 [3]: 21.8 nM
EC50 [4]: 98.3 nM
